According to the supplement of paper PMC10307832:

Experiments:
Experiment in all cases: relative viability (nuclei count vs DMSO), 5 days (fraction); higher = more cells survive
Docetaxel = compound: CC(=O)O[C@@]12CO[C@@H]1C[C@H](O)[C@@]1(C)C(=O)[C@H](O)C3=C(C)[C@@H](OC(=O)[C@H](O)[C@@H](NC(=O)OC(C)(C)C)c4ccccc4)C[C@@](O)([C@@H](OC(=O)c4ccccc4)[C@H]21)C3(C)C [Docetaxel]
Method in brief: (§1)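 In 1536-well plates, lung cancer cell lines rested overnight at 37 °C before five library-drug doses (not always all listed), √10 apart, were pinned onto vehicle-anchored plates. Nuclei were counted with MetaXpress from 4× Hoechst images taken after 5 days without medium change. Viability compares treated-well with vehicle-well nuclei as a median over plates, and plates needed control CV below 25% plus at least one doubling to pass.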

Tivozanib = compound: COc1cc2nccc(Oc3ccc(NC(=O)Nc4cc(C)on4)c(Cl)c3)c2cc1OC [Tivozanib]
Method in brief: as §1

[1] = compound: Cc1cnc(-c2cnc(NCCNc3ccc(C#N)cn3)nc2-c2ccc(Cl)cc2Cl)[nH]1
Method in brief: as §1

JQ1 = compound: Cc1sc2c(c1C)C(c1ccc(Cl)cc1)=N[C@@H](CC(=O)OC(C)(C)C)c1nnc(C)n1-2 [JQ1]
Method in brief: as §1

Cytarabine = compound: Nc1ccn([C@@H]2O[C@H](CO)[C@@H](O)[C@@H]2O)c(=O)n1 [Cytarabine]
Method in brief: as §1

CPI-613 = compound: O=C(O)CCCCC(CCSCc1ccccc1)SCc1ccccc1 [CPI-613]
Method in brief: as §1

Pimozide = compound: O=c1[nH]c2ccccc2n1C1CCN(CCCC(c2ccc(F)cc2)c2ccc(F)cc2)CC1 [Pimozide]
Method in brief: as §1

Cell Line	relative viability (Docetaxel; 0.0002 µM)	relative viability (Docetaxel; 0.000632 µM)	relative viability (Docetaxel; 0.002 µM)	relative viability (Docetaxel; 0.006325 µM)	relative viability (Docetaxel; 0.02 µM)	relative viability (Tivozanib; 0.005 µM)	relative viability (Tivozanib; 0.01581 µM)	relative viability (Tivozanib; 0.05 µM)	relative viability (Tivozanib; 0.1581 µM)	relative viability (Tivozanib; 0.5 µM)	relative viability ([1]; 0.08 µM)	relative viability ([1]; 0.253 µM)	relative viability ([1]; 0.8 µM)	relative viability ([1]; 2.53 µM)	relative viability (JQ1; 0.04 µM)	relative viability (JQ1; 0.4 µM)	relative viability (JQ1; 1.265 µM)	relative viability (JQ1; 4 µM)	relative viability (Cytarabine; 0.005 µM)	relative viability (Cytarabine; 0.01581 µM)	relative viability (Cytarabine; 0.05 µM)	relative viability (Cytarabine; 0.1581 µM)	relative viability (Cytarabine; 0.5 µM)	relative viability (CPI-613; 5 µM)	relative viability (CPI-613; 15.81 µM)	relative viability (CPI-613; 50 µM)	relative viability (CPI-613; 158.11 µM)	relative viability (CPI-613; 500 µM)	relative viability (Pimozide; 0.08 µM)	relative viability (Pimozide; 0.253 µM)	relative viability (Pimozide; 0.8 µM)	relative viability (Pimozide; 2.53 µM)	relative viability (Pimozide; 8 µM)	relative viability (JQ1; 0.1265 µM)
HCC-366	0.946	0.631	0.14	0.0335	0.03	0.982	0.98	1.02	1.02	0.992	1.04	0.928	0.968	0.925	1.05	1.08	0.693	0.325	1.01	0.974	0.884	0.337	0.11	1.02	1.04	1.09	0.413	0.0138	0.978	1.01	0.967	0.992	0.972	–
HCC-827	0.943	1.07	0.916	0.431	0.328	1.01	1.05	1.1	1.09	1	1.05	–	1.02	1.02	1.05	0.988	1.11	0.883	0.765	0.568	0.417	0.225	0.196	0.993	1.02	1.11	0.908	0.669	–	1.04	0.955	1.02	1.01	–
HOP-62	0.969	0.759	0.543	0.289	0.184	1.01	1.03	1.09	0.936	0.978	0.989	0.826	1.02	0.942	0.999	0.662	0.29	0.153	0.848	0.636	0.431	0.159	0.104	0.978	0.936	1	0.833	0.643	1.04	0.947	0.646	0.994	0.981	0.808
IA-LM	0.704	0.231	0.131	0.0652	0.0513	0.865	1.01	0.909	0.767	0.845	1.02	0.8	1.02	0.916	0.907	0.165	0.11	0.085	0.962	0.814	0.662	0.38	0.226	0.818	0.779	0.85	0.525	0.671	0.951	1.02	0.929	1.02	0.966	0.419
LC-2-ad	0.653	0.46	0.328	0.282	0.202	0.975	0.995	0.928	0.815	0.569	1.03	–	0.824	0.982	0.996	0.545	0.31	0.286	0.832	0.856	0.778	0.487	0.296	0.876	0.924	0.968	0.392	0.029	0.942	0.894	0.82	0.974	0.897	0.462
LCLC-97TM1	0.88	0.617	0.3	0.104	0.0757	0.953	1.04	1.05	0.927	0.919	0.977	0.846	0.907	0.908	1	0.803	0.491	0.194	0.99	0.787	0.296	0.143	0.129	0.964	0.993	0.985	0.97	0.629	0.984	0.906	0.916	0.953	0.653	0.759
LCLC-103H	0.973	1.09	0.903	0.502	0.458	0.996	0.995	1.06	0.982	0.994	1.03	0.865	0.989	0.952	0.979	0.906	0.658	0.427	0.912	0.991	1.01	0.965	0.894	0.999	0.95	0.99	0.854	0.773	0.975	0.905	0.911	0.969	0.963	0.83
LK-2	0.921	0.771	0.27	0.208	0.144	1.05	0.962	0.937	0.834	0.784	1.14	0.941	0.995	1.15	0.942	0.497	0.236	0.218	0.797	0.604	0.414	0.259	0.212	0.943	0.953	1.16	1	0.929	0.965	0.93	0.843	0.808	1.06	0.907
LOU-NH91	0.898	0.758	0.473	0.369	0.354	0.865	1.04	0.982	0.814	0.945	1.01	0.924	0.94	0.976	0.989	0.637	0.626	0.462	0.955	0.918	0.723	0.7	0.584	0.926	0.951	0.982	0.913	0.842	0.785	0.924	0.916	1.04	0.896	0.801
LU99A	0.997	0.83	0.478	0.395	0.203	0.987	0.849	0.942	0.751	0.952	1.06	0.939	1.04	0.963	0.847	0.82	0.542	0.32	1.06	0.825	0.905	0.886	0.929	0.896	0.886	0.832	0.756	0.279	0.907	0.938	0.858	0.893	1	0.667
LXF-289	1	0.731	0.473	0.171	0.128	0.998	0.935	0.996	1.1	0.956	1.01	0.864	1.06	1.1	0.984	0.981	0.936	0.671	0.93	1	0.883	0.563	0.305	0.922	0.958	0.992	0.78	0.0678	0.963	1	0.917	0.998	0.923	0.965
NCI-H23	0.99	0.725	0.296	0.209	0.137	0.943	0.966	0.913	0.661	0.61	0.891	0.873	0.941	0.842	0.919	0.584	0.274	0.218	0.773	0.564	0.559	0.246	0.203	0.982	0.881	0.943	0.39	0.043	0.95	1.05	0.773	0.851	0.808	0.874
NCI-H322M	0.957	0.889	0.762	0.612	0.439	0.948	0.929	0.972	0.791	0.902	0.976	0.842	0.853	1.26	0.917	0.822	0.57	0.437	0.877	0.794	0.628	0.475	0.336	0.894	0.85	0.899	0.911	0.153	–	0.932	1.02	0.948	0.705	1.05
NCI-H358	0.768	0.463	0.251	0.209	0.138	0.898	0.944	1.1	0.915	1.01	0.97	0.818	0.822	0.796	0.982	0.941	0.638	0.461	0.912	0.757	0.509	0.2	0.161	0.876	0.949	0.901	0.495	0.038	0.796	1.02	0.876	0.943	0.925	0.976
NCI-H441	0.977	0.747	0.288	0.26	0.13	0.949	0.93	0.919	0.895	0.766	1.01	0.768	0.95	0.867	1.01	0.719	0.598	0.352	0.962	0.973	0.965	0.365	0.367	0.954	1.01	0.924	0.4	0.0254	1.12	0.9	0.804	0.883	0.776	0.813
NCI-H460	0.949	0.806	0.288	0.0373	0.0295	0.985	1.06	0.989	1.03	0.965	1	0.911	0.981	0.883	0.97	0.593	0.353	0.197	0.962	0.894	0.256	0.0513	0.0345	0.973	0.97	1	0.66	0.515	1.01	0.95	0.964	0.913	0.922	0.617
NCI-H520	0.853	0.973	0.489	0.277	0.169	0.906	0.922	0.884	0.684	0.859	1.04	1	1.03	1.07	0.954	0.905	0.533	0.458	0.94	1.04	1.13	0.741	0.657	1.05	0.952	1.04	0.77	0.139	0.993	0.978	0.903	0.96	0.972	1.07
NCI-H522	0.927	0.727	0.689	0.579	0.389	0.961	1.21	0.925	0.802	0.787	1.07	1.01	1.02	0.873	0.957	0.793	0.457	0.425	0.868	0.878	0.762	0.566	0.53	0.864	0.944	1.09	0.921	0.53	0.93	0.885	0.868	0.893	0.906	0.915
NCI-H596	0.89	0.89	0.632	0.518	0.273	0.926	0.963	1.13	–	0.99	0.995	0.972	0.754	1.07	1.06	0.747	0.412	0.286	0.956	0.841	0.798	0.689	0.551	0.956	0.902	1.04	0.781	0.0741	0.993	0.935	0.882	0.952	0.847	0.923
